This note sets out measurements from patent US20240360194A1, “New Peptides as Potent and Selective GIP Receptor Agonists” (Sanofi, priority 2021, published 2024).

Numbered stars: 1 amine (or outer) side, 2 acyl side, 3 side chain; on linkers, the order of the positions; unused ones are H or OH. Square brackets hold non-standard residues; d marks the D form. Side chains are listed from the residue outwards. Ends that are not written are not given here. Peptide text beside a SMILES is read from it. * marks the point of attachment. C18 diacid = O=C(O)CCCCCCCCCCCCCCCCC(=O)*; γGlu = O=C(O)[C@H](CCC(=O)[*:2])N[*:1]; tBuAla = CC(C)(C)C[C@H](N)C(=O)O; AEEA = NCCOCCOCC(=O)O; Aib = CC(C)(N)C(=O)O

What is called EC50 is the concentration needed to bring the measured effect to its halfway point. As usually defined, the Emax is the greatest response seen or fitted, relative to the assay's reference. As a reminder, the IC50 is the point on the concentration scale where inhibition reaches its midpoint. A lower IC50 goes with inhibition by little substance. A word on the solubility: it is the concentration that dissolves in the medium under given conditions. A higher solubility goes with a readily soluble substance.

Data set [1] concerns the target T1, human GIP receptor (Homo sapiens, UniProt P48546).
T1 construct: human adipocytes endogenously expressing the human GIP receptor; host or cells: human preadipocytes (Lonza) differentiated to adipocytes
T1 sequence (P48546 22-466): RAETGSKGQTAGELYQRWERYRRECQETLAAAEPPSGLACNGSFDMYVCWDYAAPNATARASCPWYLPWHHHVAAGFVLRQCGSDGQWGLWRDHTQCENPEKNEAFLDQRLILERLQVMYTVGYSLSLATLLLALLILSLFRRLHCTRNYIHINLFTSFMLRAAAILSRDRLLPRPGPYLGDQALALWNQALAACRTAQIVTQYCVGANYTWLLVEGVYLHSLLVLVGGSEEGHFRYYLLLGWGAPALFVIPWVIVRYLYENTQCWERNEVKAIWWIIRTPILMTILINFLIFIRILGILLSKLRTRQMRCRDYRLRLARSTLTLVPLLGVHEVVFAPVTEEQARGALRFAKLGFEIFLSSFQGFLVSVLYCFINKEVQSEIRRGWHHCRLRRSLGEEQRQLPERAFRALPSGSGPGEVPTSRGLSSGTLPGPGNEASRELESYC
As to the kind of experiment: In vitro cellular cAMP assay for GIP receptor efficacy (human adipocytes). Format: cell-based. On the procedure: For this, one vial of human preadipocytes (˜10^6 cells; Lonza) was thawed in a T-75 cell culture dish. The cells were cultivated at 37° C., 5% CO2, 95% humidity in Preadipocyte Growth Medium with Supplement Mix from Promo Cell.
After 3 days, the cells were washed with PBS and 1.5 ml Trypsin, incubated for 4 min, then resuspended in medium, centrifugated for 10 min @ 300 rcf RT, resuspended again and distributed to four T-75 cell culture dishes. Again, the cells were cultivated at 37° C., 5% CO2, 95% humidity.
After 5 days, the cells were washed with PBS and 1.5 ml Trypsin, incubated for 4 min, then resuspended in medium, centrifugated for 10 min @ 300 rcf RT, resuspended again and sawn in T-75 dishes (2.5×10^6 cells per dish) in 15 ml Differentiation medium each.
The differentiation medium had the following composition: DMEM (Gibco), Ham's F10 (Gibco), 15 mM HEPES (Gibco), 3% FCS (PAA), 33 μM biotin (Sigma-Aldrich), 17 μM Pantothenate (Sigma-Aldrich), 0.1 μM human insulin (Sigma-Aldrich), 1 μM dexamethason (Sigma-Aldrich), 0.1 μM PPARgamma agonist (#R2408, Sigma-Aldrich), 0.6×Anti-Anti (#15240, ThermoFisher), 200 μM IBMX (AppliChem), and 0.01 μM L-thyroxine (Sigma-Aldrich).
After 6 days of differentiation, 5000 cells per well were dispensed on a 96-well plate (#CLS3694 from Corning®, Sigma-Aldrich). For measurement of cAMP generation, 25 μL of test compound was added to each well of the 96-well plate, followed by incubation for 30 min at room temperature.
The cAMP generated following test compound stimulation was determined using a kit from Cisbio Corp. based on HTRF (Homogenous Time Resolved Fluorescence). The cAMP assay was performed according to manufacturer's instructions (Cisbio).
The cAMP content of cells was determined using a kit from Cisbio Corp. based on HTRF (Homogenous Time Resolved Fluorescence).
After addition of HTRF reagents diluted in lysis buffer (kit components), the plates were incubated for 1 h, followed by measurement of the fluorescence ratio at 665/620 nm.
(In general: cAMP levels reflect the balance of adenylyl cyclase and phosphodiesterase activity.)

The target of data set [2] is T2, human GIP receptor (hGIPR) (Homo sapiens, UniProt P48546).
T2 sequence (P48546 22-466): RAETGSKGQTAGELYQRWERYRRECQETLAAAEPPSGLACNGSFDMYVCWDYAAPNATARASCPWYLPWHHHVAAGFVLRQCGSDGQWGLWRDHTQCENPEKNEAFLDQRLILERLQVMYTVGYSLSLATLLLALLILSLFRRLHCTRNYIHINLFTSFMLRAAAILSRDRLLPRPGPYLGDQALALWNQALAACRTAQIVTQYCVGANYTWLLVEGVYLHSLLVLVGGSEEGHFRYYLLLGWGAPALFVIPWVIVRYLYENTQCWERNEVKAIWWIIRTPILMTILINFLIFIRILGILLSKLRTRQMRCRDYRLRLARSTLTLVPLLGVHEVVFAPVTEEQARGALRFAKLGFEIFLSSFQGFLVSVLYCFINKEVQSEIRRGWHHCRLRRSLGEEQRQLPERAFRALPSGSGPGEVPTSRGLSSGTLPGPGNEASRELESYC
Description: Binding assay, displacement of [125I]GIP from HEK-293 membranes over-expressing GIPR (SPA). As to conditions: [125I]GIP displacement. On the procedure: (1) Preparation of Membranes from HEK-293 Cells Over-Expressing GIPR or GLP-1R
HEK-293 cells recombinantly over-expressing GIPR or GLP-1R were grown to 50% confluency, washed with warm 1×PBS (Gibco) and detached in HEPES/EDTA-buffer (100 mM HEPES pH 7.5, 5 mM EDTA). Cells were harvested by centrifugation at 4° C. and 3000×g and the pellets were stored at −80° C. until further processing.
After thawing on ice, pellets were resuspended in HEPES/EDTA-buffer and homogenized on ice for 1 min using Ultra-Turray T25. After subsequent sonification the cell debris was removed by centrifugation at 1000×g and 4° C. Supernatants were then ultra-centrifuged at 100000×g and 4° C. under vacuum for 30 min. Pellets were resuspended in HEPES/EDTA/NaCl-buffer (20 mM HEPES, 1 mM EDTA, 150 mM NaCl; add 1 Complete Mini Protease inhibitor cocktail to 10 ml buffer) and protein content was determined via BCA-Protein assay.
(2) Measurement of Binding Activity of Test Compounds to Human GIPR or GLP-1R
On the technique in general: Displacement assays read how much labelled ligand stays bound in the presence of the test substance.

Data set [3] can be described thus: Solubility assessment (UHPLC-UV of supernatant, target 10 mg/ml). Format: physicochemical. On the procedure:
Prior to the solubility measurement of a peptide batch, its purity was determined through UHPLC/MS.
Therefore, solutions from solid samples were prepared in a buffer system with a concentration of 10 mg/ml compound based on the previously determined % purity: • Solubility buffer system A) 100 mM phosphate buffer pH 7.4 • Solubility buffer system B) 8 mM phosphate buffer pH 7.4, 14 mg/ml propylene glycol, 5.5 mg/ml phenol • Solubility buffer system C) 100 mM phosphate buffer pH 7.4, 2.7 mg/ml m-cresol
UHPLC-UV was performed after 1 h of gentle agitation and storage at 5° C. overnight (24 h) from the supernatant, which was obtained after 15 min of centrifugation at 2500 RCF (relative centrifugal acceleration).
The different UV extinction coefficients of sample and reference peptide were calculated based on the different amino acid sequences and considered in the concentration calculation.
The analytical method used was Analytical UHPLC Method A.
Peptide samples were prepared in solubility buffer system A or C and solubility was assessed as described in Methods.

In data set [4] the target is human GLP-1 receptor (hGLP-1R) (Homo sapiens, UniProt P43220). Description: In vitro cellular cAMP assay for GLP-1 receptor efficacy (HEK-293 cell line over-expressing receptor). Format: cell-based. As to conditions: HEK-293, 0.1% BSA.
human GLP-1 receptor (hGLP-1R), sequence (P43220 24-463): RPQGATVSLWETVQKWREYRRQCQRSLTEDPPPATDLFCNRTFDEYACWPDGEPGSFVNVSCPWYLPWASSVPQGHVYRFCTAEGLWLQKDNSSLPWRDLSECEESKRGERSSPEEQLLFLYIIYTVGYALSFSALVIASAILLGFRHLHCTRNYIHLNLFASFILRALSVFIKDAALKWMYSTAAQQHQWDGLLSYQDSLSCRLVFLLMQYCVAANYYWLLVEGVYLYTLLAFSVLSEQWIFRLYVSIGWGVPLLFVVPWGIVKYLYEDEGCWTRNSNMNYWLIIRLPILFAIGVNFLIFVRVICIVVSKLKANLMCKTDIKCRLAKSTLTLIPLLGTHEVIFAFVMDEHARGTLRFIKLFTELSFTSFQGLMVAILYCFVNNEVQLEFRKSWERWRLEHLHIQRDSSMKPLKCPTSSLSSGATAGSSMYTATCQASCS
Data set [5] addresses T3, human GIP receptor (human, UniProt P48546 22-466).
T3 sequence (looked up): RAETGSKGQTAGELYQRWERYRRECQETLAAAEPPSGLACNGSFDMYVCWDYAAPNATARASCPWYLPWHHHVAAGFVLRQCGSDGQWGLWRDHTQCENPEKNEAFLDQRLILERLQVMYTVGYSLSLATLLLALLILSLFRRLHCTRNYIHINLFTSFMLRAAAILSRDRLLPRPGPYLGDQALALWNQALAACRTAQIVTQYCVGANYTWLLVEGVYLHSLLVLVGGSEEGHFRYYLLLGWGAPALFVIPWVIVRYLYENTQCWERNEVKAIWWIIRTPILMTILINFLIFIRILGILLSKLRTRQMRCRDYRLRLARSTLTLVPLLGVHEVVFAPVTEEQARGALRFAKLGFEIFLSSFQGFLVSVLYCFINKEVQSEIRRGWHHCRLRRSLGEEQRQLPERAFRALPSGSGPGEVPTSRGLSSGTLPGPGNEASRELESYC
Description: cell-based or functional assay.

As for `CC[C@H](C)[C@H](NC(=O)[C@H](Cc1ccccc1)NC(=O)[C@H](CCC(=O)O)NC(=O)[C@H](CCC(=O)O)NC(=O)[C@H](CCC(N)=O)NC(=O)[C@H](Cc1c[nH]cn1)NC(=O)[C@@H](NC(=O)[C@H](CCCNC(=N)N)NC(=O)[C@H](CC(=O)O)NC(=O)[C@H](CCCCNC(=O)COCCOCCNC(=O)COCCOCCNC(=O)CC[C@H](NC(=O)CCCCCCCCCCCCCCCCC(=O)O)C(=O)O)NC(=O)C(C)(C)NC(=O)[C@@H](NC(=O)[C@H](CO)NC(=O)[C@H](CC(C)C)NC(=O)[C@H](CC(=O)O)NC(=O)[C@H](CO)NC(=O)[C@@H](NC(=O)[C@H](Cc1ccccc1)NC(=O)[C@@H](NC(=O)CNC(=O)[C@H](CCC(=O)O)NC(=O)C(C)(C)NC(=O)[C@@H](N)Cc1ccc(O)cc1)[C@@H](C)O)[C@@H](C)CC)[C@@H](C)CC)[C@@H](C)CC)C(=O)N[C@@H](CCC(=O)O)C(=O)N[C@@H](Cc1c[nH]c2ccccc12)C(=O)N[C@@H](CC(C)C)C(=O)N[C@@H](CC(C)C)C(=O)N[C@@H](C)C(=O)N[C@@H](CCC(N)=O)C(=O)N[C@@H](CCC(=O)O)C(=O)N1CCC[C@H]1C(=O)N[C@@H](CO)C(=O)N[C@@H](CO)C(=O)NCC(=O)N[C@@H](C)C(=O)N1CCC[C@H]1C(=O)N1CCC[C@H]1C(=O)N1CCC[C@H]1C(=O)N[C@@H](CO)C(N)=O` [SEQ ID NO: 27, H2N-Y-Aib-E-G-T-F-I-S-D-L-S-I-Aib-K[{AEEA}2-gGlu-C18OH]-DRIHQEEFIEWLLAQEPSSGAPPPS-NH2] (H-Y[Aib]EGTFISDLSI[Aib]K([AEEA-AEEA-γGlu-C18 diacid])DRIHQEEFIEWLLAQEPSSGAPPPS-NH2), the EC50 on human GIP receptor [1] (read-out: hGIPR EC50) was 0.6 nM; in data set [4], above 10 nM. In addition, the Emax on human GIP receptor [1] (read-out: hGIPR Emax) came out at 116%. This molecule gave an IC50 in data set [2] of 0.7 nM. This molecule also gave a Soluble amount in data set [3] (24 h, pH 7.4) above 8.4 mg/mL. Moreover, in data set [3] (pH 7.4, Soluble amount), the solubility at 24 h is above 9000 µg/mL.

B1: SEQ ID NO: 33 (peptide)
peptide: Y[Aib]EGTFISDLSI[Aib]K([AEEA-AEEA-γGlu-C18 diacid])DRIHQEEFIEWL[tBuAla]AQGPSSGAPPPS-NH2
modifications: N-terminus assumed
SMILES: CC[C@H](C)[C@H](NC(=O)[C@H](Cc1ccccc1)NC(=O)[C@H](CCC(=O)O)NC(=O)[C@H](CCC(=O)O)NC(=O)[C@H](CCC(N)=O)NC(=O)[C@H](Cc1c[nH]cn1)NC(=O)[C@@H](NC(=O)[C@H](CCCNC(=N)N)NC(=O)[C@H](CC(=O)O)NC(=O)[C@H](CCCCNC(=O)COCCOCCNC(=O)COCCOCCNC(=O)CC[C@H](NC(=O)CCCCCCCCCCCCCCCCC(=O)O)C(=O)O)NC(=O)C(C)(C)NC(=O)[C@@H](NC(=O)[C@H](CO)NC(=O)[C@H](CC(C)C)NC(=O)[C@H](CC(=O)O)NC(=O)[C@H](CO)NC(=O)[C@@H](NC(=O)[C@H](Cc1ccccc1)NC(=O)[C@@H](NC(=O)CNC(=O)[C@H](CCC(=O)O)NC(=O)C(C)(C)NC(=O)[C@@H](N)Cc1ccc(O)cc1)[C@@H](C)O)[C@@H](C)CC)[C@@H](C)CC)[C@@H](C)CC)C(=O)N[C@@H](CCC(=O)O)C(=O)N[C@@H](Cc1c[nH]c2ccccc12)C(=O)N[C@@H](CC(C)C)C(=O)N[C@@H](CC(C)(C)C)C(=O)N[C@@H](C)C(=O)N[C@@H](CCC(N)=O)C(=O)NCC(=O)N1CCC[C@H]1C(=O)N[C@@H](CO)C(=O)N[C@@H](CO)C(=O)NCC(=O)N[C@@H](C)C(=O)N1CCC[C@H]1C(=O)N1CCC[C@H]1C(=O)N1CCC[C@H]1C(=O)N[C@@H](CO)C(N)=O
As for B1, in the data set with human GIP receptor [5], the “EC50 hGIPR 0% HSA (cAMP, HEK-293)” value came out at 0.22 pM and the “EC50 hGIPR 0.1% BSA (cAMP, HEK-293)” value turned out to be 64.4 pM.
